In ChEMBL document CHEMBL1153245, “A profile of the in vitro anti-tumor activity of imidazolium-based ionic liquids” (2010):

What was measured:
Assay type in all cases: functional
T47D [1] = assay: Anticancer activity against human T47D cells assessed cell growth at 10 uM after 48 hrs by sulforhodamine B assay relative to control
HL-60(TB) = assay: Anticancer activity against human HL-60(TB) cells after 48 hrs by sulforhodamine B assay; details: Homo sapiens, HL-60, 48 h
OVCAR-8 = assay: Anticancer activity against human OVCAR8 cells assessed cell growth at 10 uM after 48 hrs by sulforhodamine B assay relative to control
NCI/ADR-RES = assay: Anticancer activity against human NCI/ADR-RES cells after 48 hrs by sulforhodamine B assay; details: Homo sapiens, NCI/ADR-RES, 48 h
SR = assay: Anticancer activity against human SR cells after 48 hrs by sulforhodamine B assay; details: Homo sapiens, SR, 48 h
SF-295 [2] = assay: Anticancer activity against human SF295 cells after 48 hrs by sulforhodamine B assay; details: Homo sapiens, SF-295, 48 h
HCT-116 [3] = assay: Anticancer activity against human HCT116 cells after 48 hrs by sulforhodamine B assay; details: Homo sapiens, HCT-116, 48 h
TK-10 = assay: Anticancer activity against human TK10 cells assessed cell growth at 10 uM after 48 hrs by sulforhodamine B assay relative to control
HCT-116 [4] = assay: Anticancer activity against human HCT116 cells assessed cell growth at 10 uM after 48 hrs by sulforhodamine B assay relative to control
SW-620 [5] = assay: Anticancer activity against human SW620 cells after 48 hrs by sulforhodamine B assay; details: Homo sapiens, SW-620, 48 h
OVCAR-5 [6] = assay: Anticancer activity against human OVCAR5 cells assessed cell growth at 10 uM after 48 hrs by sulforhodamine B assay relative to control
SK-MEL-28 = assay: Anticancer activity against human SK-MEL-28 cells after 48 hrs by sulforhodamine B assay; details: Homo sapiens, SK-MEL-28, 48 h
Malme-3M = assay: Anticancer activity against human MALME-3M cells after 48 hrs by sulforhodamine B assay; details: Homo sapiens, Malme-3M, 48 h
SF-295 [7] = assay: Anticancer activity against human SF295 cells assessed cell growth at 10 uM after 48 hrs by sulforhodamine B assay relative to control
A498 [8] = assay: Anticancer activity against human A498 cells after 48 hrs by sulforhodamine B assay; details: Homo sapiens, A498, 48 h
COLO 205 = assay: Anticancer activity against human COLO205 cells after 48 hrs by sulforhodamine B assay; details: Homo sapiens, COLO 205, 48 h
NCI-H460 = assay: Anticancer activity against human NCI-H460 cells after 48 hrs by sulforhodamine B assay; details: Homo sapiens, NCI-H460, 48 h
KM12 = assay: Anticancer activity against human KM12 cells assessed cell growth at 10 uM after 48 hrs by sulforhodamine B assay relative to control
MCF7 [9] = assay: Anticancer activity against human MCF7 cells assessed cell growth at 10 uM after 48 hrs by sulforhodamine B assay relative to control
A498 [10] = assay: Anticancer activity against human A498 cells assessed cell growth at 10 uM after 48 hrs by sulforhodamine B assay relative to control
SN12C = assay: Anticancer activity against human SN12C cells after 48 hrs by sulforhodamine B assay; details: Homo sapiens, SN12C, 48 h
UACC-62 = assay: Anticancer activity against human UACC62 cells after 48 hrs by sulforhodamine B assay; details: Homo sapiens, UACC-62, 48 h
HCT-15 [11] = assay: Anticancer activity against human HCT15 cells after 48 hrs by sulforhodamine B assay; details: Homo sapiens, HCT-15, 48 h
OVCAR-3 = assay: Anticancer activity against human OVCAR-3 cells after 48 hrs by sulforhodamine B assay; details: Homo sapiens, OVCAR-3, 48 h
DU-145 = assay: Anticancer activity against human DU145 cells after 48 hrs by sulforhodamine B assay; details: Homo sapiens, DU-145, 48 h
HCT-15 [12] = assay: Anticancer activity against human HCT15 cells assessed cell growth at 10 uM after 48 hrs by sulforhodamine B assay relative to control
SK-OV-3 [13] = assay: Anticancer activity against human SKOV3 cells after 48 hrs by sulforhodamine B assay; details: Homo sapiens, SK-OV-3, 48 h
MDA-MB-435 [14] = assay: Anticancer activity against human MDA-MB-435 cells after 48 hrs by sulforhodamine B assay; details: Homo sapiens, MDA-MB-435, 48 h
[15] = Anticancer activity against human Hs 578T cells after 48 hrs by sulforhodamine B assay; details: Homo sapiens, Hs-578T, 48 h
OVCAR-5 [16] = assay: Anticancer activity against human OVCAR5 cells after 48 hrs by sulforhodamine B assay; details: Homo sapiens, OVCAR-5, 48 h
SK-OV-3 [17] = assay: Anticancer activity against human SKOV3 cells assessed cell growth at 10 uM after 48 hrs by sulforhodamine B assay relative to control
MDA-MB-468 = assay: Anticancer activity against human MDA-MB-468 cells after 48 hrs by sulforhodamine B assay; details: Homo sapiens, MDA-MB-468, 48 h
MCF7 [18] = assay: Anticancer activity against human MCF7 cells after 48 hrs by sulforhodamine B assay; details: Homo sapiens, MCF7, 48 h
SF-268 [19] = assay: Anticancer activity against human SF268 cells assessed cell growth at 10 uM after 48 hrs by sulforhodamine B assay relative to control
NCI-H226 = assay: Anticancer activity against human NCI-H226 cells after 48 hrs by sulforhodamine B assay; details: Homo sapiens, NCI-H226, 48 h
SF-268 [20] = assay: Anticancer activity against human SF268 cells after 48 hrs by sulforhodamine B assay; details: Homo sapiens, SF-268, 48 h
SW-620 [21] = assay: Anticancer activity against human SW620 cells assessed cell growth at 10 uM after 48 hrs by sulforhodamine B assay relative to control
NCI-H322M = assay: Anticancer activity against human NCI-H322M cells after 48 hrs by sulforhodamine B assay; details: Homo sapiens, NCI-H322M, 48 h
ACHN = assay: Anticancer activity against human ACHN cells after 48 hrs by sulforhodamine B assay; details: Homo sapiens, ACHN, 48 h
MDA-MB-435 [22] = assay: Anticancer activity against human MDA-MB-435 cells assessed cell growth at 10 uM after 48 hrs by sulforhodamine B assay relative to control
T47D [23] = assay: Anticancer activity against human T47D cells after 48 hrs by sulforhodamine B assay; details: Homo sapiens, T47D, 48 h
[24] = read-out: LC50 (the source's name)

For `CCCCCCCCCCCCCCCCCC[n+]1ccn(C)c1.O=S(=O)([N-]S(=O)(=O)C(F)(F)F)C(F)(F)F`, the Activity (T47D [1]) was 16.98%, the GI50 (HL-60(TB)) was 0.293 µM and the CC50 (HL-60(TB); [24]) was > 100 µM. It also gave an Activity (OVCAR-8) of -37.35%, a GI50 (NCI/ADR-RES) of 1.24 µM and an LC50 (NCI/ADR-RES) of 9.41 µM. The GI50 (SR) was 1.24 µM, the CC50 (SR; [24]) was > 100 µM and the GI50 (SF-295 [2]) was 0.484 µM. The CC50 (SF-295 [2]; [24]) was 6.61 µM, the GI50 (HCT-116 [3]) was 0.651 µM and the CC50 (HCT-116 [3]; [24]) was > 100 µM. It also gave an Activity (TK-10) of -72.43%, an Activity (HCT-116 [4]) of -51.46% and a GI50 (SW-620 [5]) of 0.52 µM. For the same compound, the LC50 (SW-620 [5]) was 6.48 µM, the Activity (OVCAR-5 [6]) was -59.68% and the GI50 (SK-MEL-28) was 1.14 µM. It also gave an LC50 (SK-MEL-28) of 6.51 µM, a GI50 (Malme-3M) of 0.454 µM and an LC50 (concentration killing 50% of cells) (Malme-3M) of 5.08 µM. It also gave an Activity (SF-295 [7]) of -21.51%, a GI50 (A498 [8]) of 1.07 µM and a CC50 (A498 [8]; [24]) of 6.22 µM. It also gave a GI50 (COLO 205) of 0.35 µM, a CC50 (COLO 205; [24]) of 4.02 µM and a GI50 (NCI-H460) of 0.663 µM. It also gave an LC50 (NCI-H460) of 5.24 µM, an Activity (KM12) of -61.9% and an Activity (MCF7 [9]) of 6.12%. The Activity (A498 [10]) was -44.9%, the GI50 (SN12C) was 1.25 µM and the LC50 (SN12C) was 5.72 µM. It also gave a GI50 (UACC-62) of 1.04 µM, an LC50 (UACC-62) of 5.1 µM and a GI50 (HCT-15 [11]) of 1.07 µM. It also gave a CC50 (HCT-15 [11]; [24]) of 5.94 µM, a GI50 (OVCAR-3) of 0.442 µM and an LC50 (50% lethal concentration) (OVCAR-3) of 4.71 µM. The GI50 (DU-145) was 0.792 µM, the CC50 (DU-145; [24]) was 4.69 µM and the Activity (HCT-15 [12]) was -54.83%. For the same compound, the GI50 (SK-OV-3 [13]) was 1.16 µM, the CC50 (SK-OV-3 [13]; [24]) was 5.82 µM and the GI50 (MDA-MB-435 [14]) was 1.08 µM. The CC50 (MDA-MB-435 [14]; [24]) was 6.69 µM, the GI50 [15] was 0.546 µM and the CC50 [15, 24] was 8.48 µM. It also gave a GI50 (OVCAR-5 [16]) of 0.909 µM, a CC50 (OVCAR-5 [16]; [24]) of 9.14 µM and an Activity (SK-OV-3 [17]) of -9.16%. For the same compound, the GI50 (MDA-MB-468) was 0.196 µM, the LC50 (MDA-MB-468) was > 100 µM and the GI50 (MCF7 [18]) was 1 µM. The LC50 (50% cell kill) (MCF7 [18]) was 5.52 µM, the Activity (SF-268 [19]) was -45.26% and the GI50 (NCI-H226) was 1.26 µM. For the same compound, the LC50 (NCI-H226) was 8 µM, the GI50 (SF-268 [20]) was 1.14 µM and the CC50 (SF-268 [20]; [24]) was 6.29 µM. It also gave an Activity (SW-620 [21]) of -38.1%, a GI50 (NCI-H322M) of 1.52 µM and an LC50 (NCI-H322M) of 6.4 µM. For the same compound, the GI50 (ACHN) was 0.92 µM, the LC50 (ACHN) was 4.78 µM and the Activity (MDA-MB-435 [22]) was -70.83%. For the same compound, the GI50 (T47D [23]) was 0.6 µM and the CC50 (T47D [23]; [24]) was > 100 µM.
